Experiments:
HIV-1 X4/T-tropic IIIB = assay: TZM-bl infectivity assay, HIV-1 IIIB; format: cell-based; settings: for post-infection inhibition, IIIB: 1 ng/ml
Procedure: (§1) The TZM indicator cell line is a HeLa cell derivative that expresses high levels of CD4, CCR5 and CXCR4 (Wei, et al. (2002) Antimicrob. Agents Chemother. 46(6):1896-905). The cells contain HIV long terminal repeat (LTR)-driven β-galactosidase and luciferase reporter cassettes that are activated by HIV tat expression.
(§2) TZM cells were seeded at 2×10^4 cells per well in a 96-well microtiter plate and allowed to adhere overnight at 37° C. Varying doses of recombinant human Trappin-2/Elafin (Peprotech, Rocky Hill, N.J.) were incubated with HIV-1 IIIB and BaL at multiplicity of infection (MOI) 1 for 1 hour at 37° C. in a final volume of 100 μl. Following incubation, the media was aspirated from TZM cells and the virus plus Trappin-2/Elafin was added to the cells along with 100 μl of TZM media. Luciferase activity was measured after 48 hours at 37° C. with 5% CO2 in a humidified incubator. Briefly, the supernatants were aspirated, and the cells were lysed with a BETA GLO luciferase assay substrate. Light intensity of each well was measured using a luminometer. Uninfected cells were used to determine background luminescence. All infectivity assays were performed in quadruplicate.
(§3) Other experiments were conducted in order to determine whether the inhibitory effects of Trappin-2/Elafin were at the cell surface level such as the blocking of a co-receptor. For these experiments, varying doses of Trappin-2/Elafin were directly added to TZM cells and incubated for 1 hour at 37° C. prior to washing with 1×PBS and addition of IIIB or BaL viruses. In additional experiments to determine possible post-infection mechanisms of inhibition by Trappin-2/Elafin, TZM cells were infected with HIV-1 IIIB and BaL at MOI 1 and were washed at 6 hours and 24 hours post-infection followed by the addition of 10 ng/ml rTrappin-2/Elafin. Assays were developed at 48 hours by addition of the BETA-GLO substrate and measuring relative light units using a luminometer.
(§4) Since HIV-1 is an important sexually transmitted pathogen, the activity of recombinant Trappin-2/Elaf in (rTrappin-2/Elafin) was evaluated against HIV-1 X4/T-tropic IIIB and R5/M-tropic BaL. HIV-1 IIIB and BaL were incubated with rTrappin-2/Elafin at 0.01, 0.1, 1, and 10 ng/ml for 1 hour at 37° C. TZM-bl indicator cells were plated the previous day at 25,000 cells per well and grown to 70-80% confluence. The virus-Trappin-2/Elafin mixture was added to the TZM cells and incubated for 48 hours at 37° C. At the end of the incubation period, BETA-GLO substrate was added to the cells and viral infection was quantified using a luminometer, expressed as relative light units (RLU). The data was expressed as percent of control with virus-only control set at 100%. […] Therefore, the concentrations of Trappin-2/Elafin showing anti-HIV-1 activity were in the range of physiological levels of this molecule that were secreted by the FRT epithelial cells. Since the inhibitory activity was observed as a result of pre-incubation of HIV-1 and rTrappin-2/Elafin, it is contemplated that the effect of Trappin-2/Elafin on viral infection was direct. […]
(§5) Laboratory-adapted viral strains HIV-1 IIIB (×4) and BaL (R5) were obtained and virus stocks were propagated in PHA-stimulated human PBMC and stored frozen at −80° C. Virus stocks produced in PBMC of molecularly cloned HIV-1 NL4.3 (×4; lab-adapted) and YU-2.c (R5; directly cloned without culture) were obtained. Virus titers were determined on TZM-bl cells as described herein. Also used was a PBMC-derived virus stock of pCH077.c, a recently generated Clade B infectious molecular clone matching the nucleotide sequence determined to be the transmitted/founder virus sequence of CHAVI subject 700010077. […]

HIV-1 R5/M-tropic BaL = assay: TZM-bl infectivity assay, HIV-1 BaL; format: cell-based
Procedure: as §1, §2, §3, §4, §5

TZM cells = format: cell-based, human
Procedure: Viability of TZM cells upon treatment with Trappin-2/Elafin and CVL was quantified using the […] 96° AQueous One Solution Cell Proliferation Assay (Promega) according to manufacturer's instructions. Briefly, reagent was added directly to cell cultures and incubated for 1 hour at 37° C. followed by reading the plate in a plate reader at OD 490 nm.

[1] = tested on: Fallopian tube epithelial cells (FTEC); assay: CCL20/MIP3α production by Fallopian tube epithelial cells on Poly(I:C) treatment; format: cell-based, human
Text: (§6) Materials and Methods. Source of Tissues Human uterine and Fallopian tube tissues were obtained from women undergoing hysterectomy. Tissues used in this study were collected from patients with benign conditions such as fibroids distal from the site of pathology. The sections were examined by a pathologist and proclaimed to be free of pathological lesions. A total of nine different patients were used to obtain uterine epithelial cells and a total of seven patients were used to obtain Fallopian tube epithelial cells.
(§7) Epithelial cells were isolated according to known methods (Fahey, et al. (1999) supra; Fahey, et al. (1998) supra) as described herein.
(§8) To establish a cell culture system of polarized human uterine epithelial cells (UTEC) and Fallopian tube epithelial cells (FTEC) with both apical and basolateral compartments, primary human UTEC and FTEC were cultured in Human Extracellular Matrix (Becton Dickenson, Franklin Lakes, N.J., USA)-coated Falcon cell culture inserts in 24-well culture plates (Fisher Scientific, Pittsburgh, Pa., USA). For these experiments, apical and basolateral compartments contained 300 and 850 μL of complete medium, respectively. The medium was changed every 2 days. […]
(§9) Concentrations of CCL20/MIP3α in the apical and basolateral supernatants from human primary UTEC and FTEC were determined with an ELISA Duoset kit (R&D Systems, Minneapolis, Minn., USA) according to the manufacturer's protocol. Amounts of CCL20/MIP3α were quantified based on a standard curve after OD measurements at 450 nm on an ELISA reader (Dynex, Chantilly, Va., USA).
(§10) Real-time RT-PCR was carried with a two-step protocol as described herein. […] As indicated herein, the software calculates the threshold cycle (Ct) for each reaction which was used to quantify the amount of starting template in the reaction.

[2] = tested on: uterine epithelial cells (UTEC); assay: CCL20/MIP3α production by uterine (endometrium) epithelial cells on TLR agonist treatment; format: cell-based, human
Text: as §6, §7, §8, §9, §10

[3] = tested on: Fallopian tube, endocervix, and ectocervix epithelial cells; assay: Trappin-2/Elafin production by Fallopian tube, endocervix and ectocervix epithelial cells on Poly(I:C) stimulation; format: cell-based, human; settings: 4-6 patients per compartment
Procedure: (§11) Materials & Methods. A total of 11 different patients were used to obtain epithelial cells from the uterus, Fallopian tube, endocervix and ectocervix. Epithelial cells were isolated according to known methods (Fahey, et al. (1999) Am. J. Reprod. Immunol. 42(1):49-57; Fahey et al. (1998) Immunol. Invest. 27(3):167-80). Briefly, tissues were rinsed with 1×PBS and minced into 1-2 mm fragments prior to subjecting them to enzymatic digestion for 2 hours at 37° C. The enzyme mixture contained 3.4 mg/ml pancreatin (Invitrogen Life Technologies, Carlsbad, Calif.), 0.1 mg/ml hyaluronidase (Worthington Biochemical, Lakewood, N.J.), 1.6 mg/ml collagenase (Worthington Biochemical), and 2 mg/ml D-glucose, in 1×HBSS (Invitrogen Life Technologies). […] Epithelial cell sheets retained on the filter were recovered by rinsing and backwashing, centrifuged at 500×g for 10 minutes and analyzed for cell number and viability. […]
(§12) Concentrations of Trappin-2/Elafin in the apical and basolateral supernatants from primary FRT epithelial cells and CVL from HIV(+) and (−) women were determined with an ELISA Duoset kit (R&D Systems, Minneapolis, Minn., USA) according to the manufacturer's protocol. […] Amounts of Trappin-2/Elafin were measured based on a standard curve after OD measurements at 450 nm on an ELISA reader (Dynex, Chantilly, Va., USA). […]

uterine epithelial cells = assay: Trappin-2/Elafin production by uterine epithelial cells on Poly(I:C) stimulation; format: cell-based, human; settings: 24 hour conditioned media, ELISA
Procedure: as §11, §12

[4] = cells pre-incubated with 0.1 and 1 ng/ml 1 hour, washed
[5] = virus pre-incubated 1 hour with 0.01, 0.1, 1, 10 ng/ml, 48 hours

Row | Substance | post-infection inhibition, IIIB (HIV-1 X4/T-tropic IIIB; added 6 hours post-infection) | post-infection inhibition, IIIB (HIV-1 X4/T-tropic IIIB; added 24 hours post-infection) | infectivity of TZM cells by IIIB after pre-exposure of the cells (HIV-1 X4/T-tropic IIIB; [4]) | inhibition of IIIB (HIV-1 X4/T-tropic IIIB; [5]) [%] | post-infection inhibition, BaL (HIV-1 R5/M-tropic BaL; added 6 and 24 hours post-infection, 1 ng/ml) | infectivity of TZM cells by BaL after pre-exposure of the cells (HIV-1 R5/M-tropic BaL; [4]) | inhibition of BaL (HIV-1 R5/M-tropic BaL; [5]) [%] | toxic effect on the TZM cells (viability) (TZM cells) | samples with CCL20/MIP3α mRNA upregulation ([1]; Poly(I:C) 24 hours) | Fallopian tube CCL20/MIP3α secretion ([1]; Poly(I:C) 24 hours, ELISA) | CCL20/MIP3α level secreted by Fallopian tube cells ([1]; stimulated with Poly(I:C), constitutive 5-12 ng/mL) [ng/mL] | CCL20/MIP3α mRNA upregulation ([2]; Poly(I:C) 25 μg/mL, 24 hours, five out of five patients) | endometrium CCL20/MIP3α secretion ([2]; Poly(I:C) 24 hours, ELISA) | CCL20/MIP3α level secreted by endometrium cells ([2]; stimulated with Poly(I:C), constitutive 0.2-7 ng/mL) [ng/mL] | fraction of patients upregulating Trappin-2/Elafin [3] | Trappin-2/Elafin secretion by UT epithelial cells (uterine epithelial cells)
1 | rTrappin-2/Elafin: recombinant human Trappin-2/Elafin (Peprotech), serine protease inhibitor (AQEPVKGPVSTKPGSCPIILIRCAMLNPPNRCLKDTDCPGIKKCCEGSCGMACFVPQ; UniProt P19957 61-117, looked up) | no significant post-infection inhibition | slight inhibition | no effect | ~80 | no significant post-infection inhibition | no effect | ~60 | not due to toxic effect | – | – | – | – | – | – | – | –
2 | Poly(I:C) | – | – | – | – | – | – | – | – | two out of four samples | significant increase | 13 to 20 | greater than two-fold | significant increase | 5 to 12 | approximately ⅓ typically responded | significantly increased

From patent publication US20110104121A1, “Female Reproductive Tract and Anal Prophylaxes” (priority 2008, published 2011)
